From US8865894B2, “Oxazolidin-2-one compounds and uses thereof” (Novartis AG, priority 2012, dated 2014)

Molecular target: T1, human PI3Kdelta p110 catalytic subunit (Rat-1 pBABEpuro Myr-HA-hp110 delta) (Homo sapiens, UniProt O00329)
T1 construct: Myr (myristoylation signal) (N); HA (N); expressed in transfected cells; host or cells: Rat-1
Assay: Cellular assay PI3Kdelta (p-Akt(S473) SureFire, Rat-1_PI3Kdelta cells)
Format: cell-based
Details: 1 h compound treatment, read-out: Rat1-PI3Kd/ IC50
Source text: AlphaScreen (Amplified Luminescent Proximity Homogeneous Assay, ALPHA, Perkin Elmer) is a non-radioactive bead-based proximity assay technology to study biomolecular interactions in a homogenous microtiter plate format. The brand name SureFire denotes AlphaScreen assays that are adapted to quantify the phosphorylation of endogenous cellular proteins in cell lysates, by using matched antibody pairs, which consist of an anti-phospho-kinase and an anti-kinase antibody. The assay allows characterization of kinase signaling in cells as well as measurement of kinase inhibitor effects. The AlphaScreen technology provides several advantages over standard assay techniques such as ELISA, as it avoids time-consuming washing procedures and reduces plate handling. Furthermore, it is miniaturizable at least to a 384-well format and provides sensitivity down to the femtomolar range, dependent on the affinity of the antibodies included in the individual AlphaScreen SureFire assay kit. High sensitivity is reached by an intrinsic amplification mechanism, which involves production of singlet oxygen molecules. SureFire assay kits are commercially available for specific targets and include pairs of validated antibodies (PerkinElmer). This report describes common procedures applied for AlphaScreen SureFire assays and respective semi-automated steps for routine kinase inhibitor profiling in cell-based assays.
The Rat-1 cell lines stably overexpressing activated PI3K class I isoforms Rat-1 pBABEpuro Myr-HA-hp110 delta (Rat-1_PI3Kdelta) and Rat-1 pBABEpuro Myr-HA-hp110alpha (Rat-1_PI3Kalpha) and Rat-1 pBABEpuro Myr-HA-hp110 beta (Rat-1_PI3beta) were prepared as described (Maira S M, Stauffer F, Brueggen J, Furet P, Schnell C, Fritsch C, Brachmann S, Chène P, de Pover A, Schoemaker K, Fabbro D, Gabriel D, Simonen M, Murphy L, Finan P, Sellers W, García-Echeverría C (2008), Mol Cancer Ther. 7:1851-63 and Maira S M, Pecchi S, Brueggen J, Huh K, Schnell C, Fritsch C, Nagel T, Wiesmann M, Brachmann S, Dorsch M, Chène P, Schoemaker K, De Pover A, Menezes D, Fabbro D, Sellers W, García-Echeverría C, Voliva C F (2011), Mol. Cancer Ther., accepted). All cell lines were cultivated in complete growth medium (DMEM high glucose, 10% (v/v) fetal bovine serum, 1% (v/v) MEM NEAA, 10 mM HEPES, 2 mM L-glutamine, puromycin (10 μg/mL for Rat-1_PI3Kdelta and Rat-1_PI3Kalpha, 4 ug/mL for Rat-1_PI3beta), 1% (v/v) Pen/Strep) to 90% confluency at 37° C./5% CO2/90% humidity in a humidified CO2 incubator and were split twice a week.
The following materials were used for p-AKT(S473) detection in Rat-1 cell lysates: Dulbecco's modified Eagle's medium (DMEM) high glucose (Gibco Invitrogen, Basel, Switzerland, Cat. No. 41965), Heat Inactivated Fetal Bovine Serum, Qualified (HI FBS; Gibco Invitrogen, Basel, Switzerland, Lot. No. 16140), MEM non essential amino acids (NEAA; Gibco Invitrogen, Basel, Switzerland, Cat. No. 11140), HEPES (Gibco Invitrogen, Basel, Switzerland, Cat. No. 15630), Penicillin/Streptomycin (Pen/Strep, 100×; Gibco Invitrogen, Basel, Switzerland, Cat. No. 15140-122), L-Glutamine (Gibco Invitrogen, Basel, Switzerland, Cat. No. 25030), Puromycin (Sigma Aldrich, Buchs, Switzerland, Cat. No. P9620), DMSO (MERCK, Dietikon, Switzerland, Cat. No. 8.02912.2500), H2O, MilliQ-H2O unless otherwise stated (MILLIPORE QGARDOOR1, Millipore, Zug, Switzerland), Bovine serum albumine (BSA; Sigma Aldrich, Buchs, Switzerland Cat. No. A8412), SureFire p-Akt 1/2 (Ser473) Assay Kit (PerkinElmer, Schwerzenbach, Switzerland, Cat. No. TGRAS50K).
The p-Akt(S473) SureFire assay measures the phosphorylation of endogenous cellular Akt 1/2 at Ser473 in cell lysates. Using Rat-1 cells stably expressing myr-HA-tagged versions of the human PI3Kdelta, PI3Kalpha, or PI3Kbeta p110 catalytic subunit isoforms, the assay was developed as a two-plate protocol in a 384-well format.

T1 sequence (O00329 whole entry): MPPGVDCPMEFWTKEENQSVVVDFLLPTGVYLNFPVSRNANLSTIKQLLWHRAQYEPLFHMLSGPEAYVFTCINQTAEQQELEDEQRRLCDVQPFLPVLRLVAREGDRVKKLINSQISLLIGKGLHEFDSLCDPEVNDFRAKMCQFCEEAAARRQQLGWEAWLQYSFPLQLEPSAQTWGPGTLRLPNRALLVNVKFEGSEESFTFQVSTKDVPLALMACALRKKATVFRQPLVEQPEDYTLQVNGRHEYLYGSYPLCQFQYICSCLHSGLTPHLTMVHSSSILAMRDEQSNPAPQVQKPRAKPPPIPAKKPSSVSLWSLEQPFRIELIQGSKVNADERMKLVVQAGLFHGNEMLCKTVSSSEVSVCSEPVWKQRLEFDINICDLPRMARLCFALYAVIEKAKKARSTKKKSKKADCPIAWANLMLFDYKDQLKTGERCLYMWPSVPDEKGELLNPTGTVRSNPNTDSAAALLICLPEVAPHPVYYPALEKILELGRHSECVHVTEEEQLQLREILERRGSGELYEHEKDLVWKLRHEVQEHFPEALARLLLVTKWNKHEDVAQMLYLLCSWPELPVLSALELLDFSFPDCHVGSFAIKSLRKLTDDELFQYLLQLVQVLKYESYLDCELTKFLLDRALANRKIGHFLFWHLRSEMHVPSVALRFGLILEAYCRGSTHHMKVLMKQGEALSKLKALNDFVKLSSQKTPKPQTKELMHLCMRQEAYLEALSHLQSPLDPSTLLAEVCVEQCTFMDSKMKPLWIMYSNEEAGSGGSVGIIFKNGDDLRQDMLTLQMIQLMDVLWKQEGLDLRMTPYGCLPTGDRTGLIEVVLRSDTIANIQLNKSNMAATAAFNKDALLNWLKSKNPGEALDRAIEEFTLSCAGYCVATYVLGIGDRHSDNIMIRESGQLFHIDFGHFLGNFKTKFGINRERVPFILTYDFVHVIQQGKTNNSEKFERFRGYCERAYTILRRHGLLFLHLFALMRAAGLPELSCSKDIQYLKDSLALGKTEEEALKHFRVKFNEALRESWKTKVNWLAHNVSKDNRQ
T1 sequence (Q63787 whole entry partner): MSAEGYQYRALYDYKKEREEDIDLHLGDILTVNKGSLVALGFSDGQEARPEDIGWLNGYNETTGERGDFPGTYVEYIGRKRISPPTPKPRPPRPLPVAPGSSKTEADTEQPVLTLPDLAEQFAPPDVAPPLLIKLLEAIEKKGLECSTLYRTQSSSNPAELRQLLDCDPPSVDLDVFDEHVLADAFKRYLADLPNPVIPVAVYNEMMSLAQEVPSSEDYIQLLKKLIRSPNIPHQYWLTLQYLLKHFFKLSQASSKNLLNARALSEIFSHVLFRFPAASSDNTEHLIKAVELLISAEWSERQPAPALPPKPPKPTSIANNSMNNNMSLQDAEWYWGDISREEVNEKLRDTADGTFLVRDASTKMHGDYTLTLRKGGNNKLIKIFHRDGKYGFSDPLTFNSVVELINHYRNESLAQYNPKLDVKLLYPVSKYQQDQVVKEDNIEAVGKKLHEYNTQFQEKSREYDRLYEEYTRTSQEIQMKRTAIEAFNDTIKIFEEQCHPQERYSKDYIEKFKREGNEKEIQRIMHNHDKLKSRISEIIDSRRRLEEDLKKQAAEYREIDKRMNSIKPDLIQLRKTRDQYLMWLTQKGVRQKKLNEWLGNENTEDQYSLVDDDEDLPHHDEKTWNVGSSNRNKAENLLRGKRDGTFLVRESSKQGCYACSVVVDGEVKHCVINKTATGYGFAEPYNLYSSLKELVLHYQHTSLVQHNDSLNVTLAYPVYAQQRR

Row | Structure (SMILES) | IC50 [nM]
1 | [2H]C1([2H])OC([2H])([2H])C([2H])([2H])N(c2nc(-c3cnc(N)nc3C(F)(F)F)cc(N3C(=O)OC[C@@H]3C)n2)C1([2H])[2H] [Example 17, (S)-3-(2′-amino-2-D8-morpholino-4′-(trifluoromethyl)-[4,5′-bipyrimidin]-6-yl)-4-methyloxazolidin-2-one] | 155
2 | Nc1ncc(-c2cc(N3C(=O)O[C@H]4COC[C@H]43)nc(N3CCOCC3)n2)c(C(F)(F)F)n1 [Example 21, (3aR,6aR)-3-(2′-amino-2-morpholino-4′-(trifluoromethyl)-[4,5′-bipyrimidin]-6-yl)-tetrahydrofuro[3,4-d]oxazol-2(3H)-one] | 61
3 | C[C@H]1[C@H](CO)OC(=O)N1c1cc(-c2cnc(N)nc2C(F)(F)F)nc(N2CCOCC2)n1 [Example 15, (4S,5R)-3-(2′-Amino-2-morpholin-4-yl-4′-trifluoromethyl-[4,5′]bipyrimidinyl-6-yl)-5-hydroxymethyl-4-methyl-oxazolidin-2-one] | 53
